# Data from US9393316B2, “Cancer targeting peptides for enhancing anti-cancer drug delivery and therapeutic efficiencies” (priority 2014, dated 2016).
# Tested on: HCT116 xenografts
# Experiment: In vivo peptide competitive inhibition of phage tumor homing
# Design: species or system mice
# Conditions: co-injected with corresponding phage clone
# Method: Non-obese diabetic-severe combined immunodeficiency (NOD/SCID) mice were injected subcutaneously (s.c.) into the dorsolateral flank with 5×10^6 HCT116 cells. When the xenograft tumor size reached 300±50 mm^3, the mice were injected intravascularly (i.v.) with 2×10^11 pfu of the targeting phage or control phage M13KO7. Seven min after injection, the mice were sacrificed and perfused through the heart with 50 mL of PBS to wash unbound phages. After perfusion, xenograft tumor and mouse organs were taken out, washed three times with cold PBS, and cut into pans, with some of them homogenized. The phages bound to each tissue sample were recovered by log-phase Escherichia coli ER2738 culture and were titered on LB/IPTG/X-Gal agar plates. In peptide competitive inhibition experiments, 2×10^9 pfu of phage was co-injected with 100 μg of corresponding peptide or an unrelated control peptide.
# The tumor-homing ability of HCT63, HCT69 and HCT74 phages were further confirmed by peptide competitive inhibition experiment. Mice bearing HCT116 xenografts were co-injected with HCT63, HCT69 and HCT74 phages clones and the homologous cognate synthetic peptide; pHCT63, pHCT69 and pHCT74 peptides (SEQ ID NOs: 1-3, respectively), respectively.
row,Sequence,inhibition of phage recovery from tumor tissue by cognate peptide
1,SSMDIVLRAPLM (HCT-74) [pHCT74],markedly inhibited the recovery of phage particles from tumor tissue
2,TSVSIVSTVLTP (HCT-69) [pHCT69],markedly inhibited the recovery of phage particles from tumor tissue
